Results taken from patent US20200345733A1, “Microbicidal Pyrimidine or Triazine Containing Compounds” (Janssen Sciences Ireland UC, priority 2002, published 2020).
pEC50: −log10 of the molar value. In brackets after ≈: the same amount, converted by molar mass. Like-named read-outs stand apart in the source and are kept apart here.

Columns and labels:
Type in all cases: cell-based
Lactobacillus species = experiment: In vitro antibacterial activity, lactobacilli; conditions: 33 different Lactobacillus species from recto-vaginal cultures of pregnant women; read-out: minimum inhibitory concentration (MIC50)
Source text: (§1) Compatibility with lactobacilli and normal vaginal flora is an important requirement for a vaginal microbicide. Activity on pathogens of sexual transmitted diseases is an additional advantage. In in vitro tests for antibacterial activity of compound B, the following susceptibilities were found: • 33 different Lactobacillus species isolated from recto-vaginal cultures of pregnant women were studied.

HIV = experiment: Cervical explant model
Protocol: Compound B, at a concentration of 10 nM, was able to block infection of the tissue and at a concentration of 100 nM the compound could prevent transfer of infectious virus from migratory dendritic cells to co-cultured T-cells.

Hemophilus ducreyi = experiment: In vitro antibacterial activity, Hemophilus ducreyi
Source text: as §1

HIV Ba-L = experiment: Prevention of HIV Ba-L infection in MO-DC/CD4(+) T cell co-cultures (ELISA, secondary culture, PCR); conditions: for HIV Antigen (number of positive wells) 2° Cult. / HIV proviral DNA (2° Cult.) / HIV Antigen (number of positive wells) 1° Cult.: cell-associated HIV Ba-L; for HIV Antigen (number of positive wells) 2° Cult.: 2° culture without drug, out of 6; for HIV proviral DNA (2° Cult.): PCR after secondary culture; for HIV Antigen (number of positive wells) 1° Cult.: continuous drug, out of 6 microcultures; for pEC50: Human immunodeficiency virus 1, BAL, T-cell, MO-DC/CD4(+) T cells, read-out: EC50 (inhibiting 50% of HIV Ba-L replication)
Protocol: For experiments with CEM T cells, we used the lymphotropic SI/X4 HIV strain HTLV-IIIB, originally obtained from R. C. Gallo and M. Popovic (NIH, Bethesda, Md.). For experiments with monocyte-derived dendritic cells (MO-DC), the monotropic NSI/R5 HIV strain Ba-L, kindly provided by the NIH AIDS Research and Reference Reagent Program (Rockville, Md) was used. Ba-L stocks were grown and tittered on PHA/IL-2-stimulated peripheral blood mononuclear cells (PBMC) in complete medium, containing RPMI-1640 (Bio-Whittaker, Verviers, Belgium) and 10% bovine calf serum (Hyclone, Utah, US) (Peden K. Virological and Molecular Genetic Techniques for Studies of Established HIV Isolates. 1995, 21-45). The supernatant of these cultures were directly used as cell-free virus to infect MO-DC. To prepare cell-associated HIV Ba-L, non-stimulated PBMC (2×10^6 cells/ml) were incubated overnight with 10^−2 MOI (=multiplicity of infection) of HIV Ba-L in complete medium. Afterwards, cells were extensively washed, frozen in liquid nitrogen and thawed on the day of infection.
HIV antigen was detected using an in-house developed ELISA assay, of which the characteristics have been described (Beirnaert E, Willems B, Peeters M, Bouckaert A, Heyndrickx L, Zhong P et al. Design and Evaluation of an in-House HIV-1 (Group M and O), SIVmnd and SIVcpz Antigen Capture Assay. J Virol Methods 1998, 73: 65-70). The lower detection limit is about 200 pg/ml and the upper limit is about 25,000 pg/ml, as determined using a standard curve of Ba-L stock dilutions with known p24 content. The 50% Effective Concentration (EC50) was calculated by plotting HIV Ag concentration against drug concentration, followed by regression analysis on the linear part of the curve,
Cell-free HIV Ba-L was pre-incubated with a serial dilution of drug, ranging from 10,000 to 0.1 nM (final concentration), for 1 hour at 37° C. MO-DC were infected with drug-treated HIV at a multiplicity of infection (MOI) of 10^−3. After 2 hours (at 37° C.), MO-DC were washed (6×) and suspended at 4×10^5 cells/ml. 50 μl of MO-DC were dispensed in a 96-well cup, together with 50 μl of autologous CD4(+) T cells (2×10^6 cells/ml) and 100 μl of complete medium or 100 μl of drug (at the same concentration as for the pre-incubation). Half of the culture medium was refreshed twice weekly with complete medium, with or without drug. After 2 weeks of primary culture, supernatants were analysed by ELISA and cells were used for secondary cultures to check viral rescue. For experiments with cell-associated HIV, a similar set-up was used except that pre-incubated, cell-associated virus was washed before addition of MO-DC/CD4(+) T cells and remained present during the MO-DC/CD4(+) T cell co-culture.
To evaluate the effect of a 24-hours treatment, MO-DC and autologous CD4(+) T cells were suspended in complete medium at 4×10^4, resp. 2×10^5 cells/ml. Fifty μl of MO-DC and 50 μl of CD4(±) T cells were dispensed in a 96-well cup, together with 50 μl of cell-associated or cell-free virus (10^−3 MOI) and 50 μl of complete medium or 50 μl of a serial dilution of drug. After 24-hours (37° C., 5% CO2), cells were washed (3×) and incubated for 2 weeks. Half of the culture medium was refreshed twice weekly with complete medium (without drug). After 2 weeks of primary culture, supernatants were analysed by ELISA and cells were used for secondary cultures to check viral rescue.
PBMC were isolated from donor buffy coats and cultured for 2 days in complete medium supplemented with 5 ng/ml IL-2 (Immunosource, Zoersel, Belgium) and 0.5 μg/ml PHA (Murex, Dartford, England). After 2 weeks of primary culture, MO-DC/CD4(+) T cell co-cultures were washed (3×) and secondary cultures were set-up by adding 1×10^5 PHA/IL-2 activated PBMC per cup. Half of the culture medium was replaced every 3-4 days with IL-2 containing medium (without drug) and supernatants as well as cells were harvested after 2 additional weeks. Supernatants were tested for HIV-Ag in ELISA. […]

[1] = Continuous treatment, Cell-associated HIV
[2] = Continuous treatment, Cell-free HIV

Structure (SMILES): Cc1cc(C)c(Nc2ccnc(Nc3ccc(C#N)cc3)n2)c(C)c1 [compound B, 4-[[4-[(2,4,6-trimethylphenyl)amino]-2-pyrimidinyl]amino]benzonitrile]
- MIC50 (Lactobacillus species): > 32 µg/mL
- Concentration able to block infection of the tissue (HIV): 10 nM
- Concentration preventing transfer of infectious virus from migratory dendritic cells to co-cultured T-cells (HIV): 100 nM
- MIC50 (Hemophilus ducreyi): 1 µg/mL (≈ 3.04 µM)
- MIC50 (Hemophilus ducreyi; second value): 2 µg/mL (≈ 6.07 µM)
- HIV Antigen (number of positive wells) 2° Cult. (HIV Ba-L; 10 nM in 1° culture): 3
- HIV proviral DNA (2° Cult.) (HIV Ba-L; 10 nM): 4.74 Log(number of DNA copies/10^6 cells)
- HIV Antigen (number of positive wells) 1° Cult. (HIV Ba-L; 10 nM): 0
- HIV Antigen (number of positive wells) 2° Cult. (HIV Ba-L; 100 nM in 1° culture): 0
- HIV proviral DNA (2° Cult.) (HIV Ba-L; 100 nM): Neg
- HIV Antigen (number of positive wells) 1° Cult. (HIV Ba-L; 100 nM): 0
- HIV Antigen (number of positive wells) 2° Cult. (HIV Ba-L; 1,000 nM in 1° culture): 0
- HIV proviral DNA (2° Cult.) (HIV Ba-L; 1,000 nM): Neg
- HIV Antigen (number of positive wells) 1° Cult. (HIV Ba-L; 1,000 nM): 0
- HIV Antigen (number of positive wells) 2° Cult. (HIV Ba-L; 10,000 nM in 1° culture): 0
- HIV proviral DNA (2° Cult.) (HIV Ba-L; 10,000 nM): Neg
- HIV Antigen (number of positive wells) 1° Cult. (HIV Ba-L; 10,000 nM): 0
- Conc. that prevents replicative HIV infection (ELISA and PCR after 2° culture) (HIV Ba-L; 24 Hours treatment, Cell-associated HIV): 1,000 nM
- Conc. that prevents replicative HIV infection (ELISA and PCR after 2° culture) (HIV Ba-L; 24 Hours treatment, Cell-free HIV): 100 nM
- Conc. that prevents replicative HIV infection (ELISA and PCR after 2° culture) (HIV Ba-L; [1]): 100 nM
- Conc. that prevents replicative HIV infection (ELISA and PCR after 2° culture) (HIV Ba-L; [2]): 10 nM
- pEC50 (HIV Ba-L; 24 h, 24 hours treatment, Cell-associated HIV): 7.20
- pEC50 (HIV Ba-L; 24 h, 24 hours treatment, Cell-free HIV): 7.38
- pEC50 (HIV Ba-L; [1]): > 9.00
- pEC50 (HIV Ba-L; [2]): > 10.00
- Concentration that blocked infection in the primary cultures (HIV Ba-L; cell-associated virus, continuous treatment, primary culture only): 10 nM
